The results in this text go back to ChEMBL document CHEMBL2321784, “Discovery of 5-benzyl-3-phenyl-4,5-dihydroisoxazoles and 5-benzyl-3-phenyl-1,4,2-dioxazoles as potent firefly luciferase inhibitors” (J Med Chem, 2013).

Series [1] addresses Luciferin 4-monooxygenase (Photinus pyralis) (UniProt P08659). The experiment in a line: Noncovalent inhibition of recombinant firefly luciferase assessed as inhibition of enzyme-compound adduct formation at 10 uM after 5 mins by SDS-PAGE based liquid scintillation counting analysis. The note with it: tested as the 14C-labelled form.
For series [2] the target is unchanged. Description: Noncompetitive inhibition of recombinant firefly luciferase using ATP as substrate at 1 to 100 nM after 30 mins by Michaelis-Menten plot analysis.
For series [3] the target is unchanged. Description: Inhibition of recombinant firefly luciferase activity expressed in U87 cells at 10 uM after 48 hrs. Type of series: cell-based. The note with it: U-87MG ATCC.
Series [4] shares this target. The experiment in a line: Reversible inhibition of recombinant firefly luciferase incubated for 30 mins measured post compound wash-out by luminescence assay.
Series [5] has the same target. The experiment in a line: Inhibition of recombinant firefly luciferase at 1 nM after 20 mins by luminescence assay.
The nature of series [6]: Cytotoxicity against human U87 cells assessed as cell viability at 10 uM after 6 hrs by propidium iodide staining-based fluorescence assay. The note with it: u-87mg atcc.
The target of series [7] is Luciferin 4-monooxygenase (Photinus pyralis) (UniProt P08659). Description: Noncompetitive inhibition of recombinant firefly luciferase using luciferin as substrate at 1 to 100 nM after 30 min by Michaelis-Menten plot analysis.
The target is the same in series [8]. The experiment in a line: Inhibition of recombinant firefly luciferase activity expressed in U87 cells at 10 uM after 2 mins. Type of series: cell-based. The note with it: U-87MG ATCC.
Series [9] has the same target. Description: Inhibition of recombinant firefly luciferase at 10 uM after 20 mins by luminescence assay.
Series [10] concerns the target Luciferin 4-monooxygenase (Photinus pyralis, UniProt P08659). The experiment in a line: Inhibition of recombinant firefly luciferase after 20 mins by luminescence assay.
Series [11] deals with T1, Coelenterazine h 2-monooxygenase (Renilla reniformis) (UniProt P27652).
T1 sequence (whole entry): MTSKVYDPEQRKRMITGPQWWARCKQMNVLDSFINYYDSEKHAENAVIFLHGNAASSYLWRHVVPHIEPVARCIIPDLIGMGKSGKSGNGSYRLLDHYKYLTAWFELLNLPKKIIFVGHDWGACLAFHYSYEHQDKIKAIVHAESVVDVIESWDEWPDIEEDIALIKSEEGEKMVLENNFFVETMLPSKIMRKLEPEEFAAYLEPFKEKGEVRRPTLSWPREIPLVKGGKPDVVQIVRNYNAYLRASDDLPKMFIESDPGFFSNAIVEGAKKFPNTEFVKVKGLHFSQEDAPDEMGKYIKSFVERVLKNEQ
Description: Inhibition of sea pansy luciferase after 20 mins by luminescence assay.

Active and inactive are the calls of the source. The calls are words filed in the database; no cut-off is given here.

Chain of Luciferin 4-monooxygenase (Photinus pyralis) (P08659 whole entry): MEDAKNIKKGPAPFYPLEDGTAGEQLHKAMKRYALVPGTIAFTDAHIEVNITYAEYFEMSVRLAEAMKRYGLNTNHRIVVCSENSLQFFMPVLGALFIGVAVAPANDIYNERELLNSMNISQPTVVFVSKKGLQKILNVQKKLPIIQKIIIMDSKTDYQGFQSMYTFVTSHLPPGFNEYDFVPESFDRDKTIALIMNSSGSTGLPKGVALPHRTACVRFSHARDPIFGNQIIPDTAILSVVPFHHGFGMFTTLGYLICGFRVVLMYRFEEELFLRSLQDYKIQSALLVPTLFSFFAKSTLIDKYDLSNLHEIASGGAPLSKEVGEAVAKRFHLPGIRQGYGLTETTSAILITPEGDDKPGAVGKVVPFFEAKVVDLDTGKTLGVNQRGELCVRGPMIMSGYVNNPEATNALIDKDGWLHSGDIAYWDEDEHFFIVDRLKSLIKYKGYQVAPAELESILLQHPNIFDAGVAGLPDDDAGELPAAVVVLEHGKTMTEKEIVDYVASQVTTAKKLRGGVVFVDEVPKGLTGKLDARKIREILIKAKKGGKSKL
Chain of Luciferin 4-monooxygenase (P08659 whole entry): as above

Usually inhibition stands for how much of the control response was suppressed. Regarding `N#Cc1ccc(C2=NOC(Cc3ccccc3)C2)cc1` (racemic), in series [1], the inhibition entry is “Active”.
As a reminder, the IC50 is the concentration at which inhibition is half-maximal. In the case of `Clc1ccc(C2=NO[C@H](Cc3ccccc3)C2)cc1`, the inhibition result in series [2], in [3], in [4], in series [7] and in series [8] was “Active” throughout. Also, the inhibition is 72.8% in series [5] and 99.8% in [9]. For the same compound, the Activity result in series [6] is on record as “Non-toxic”. Also, the IC50 in series [10] was 0.257 nM. In series [11], the inhibition entry is “inactive”.
For orientation: pIC50 means −log10 of the IC50, conventionally taken in molar units. For the compound `COc1cccc(C[C@H]2CC(c3ccc(Cl)cc3)=NO2)c1`, the results for the inhibition in [5] and in [9] were 1.1% and 33.6%, respectively. Moreover, the pIC50 in [10] was above 5.
Regarding `COc1ccc(C2=NO[C@H](Cc3ccccc3)C2)cc1`, the inhibition result in series [2], in series [3], in series [7] and in series [8] was “Active” throughout. The figures for the inhibition in series [5] and in series [9] were 70.9% and 99.8%, respectively. The IC50 in series [10] is 0.288 nM.
As to `Fc1ccccc1C1=NO[C@H](Cc2ccccc2)C1`, the inhibition was 57.9% in series [5] and 99.3% in series [9]. Further, the half-maximal inhibitory concentration (IC50) in [10] was 0.955 nM.
On to `COc1ccc(C[C@@H]2CC(c3ccc(Cl)cc3)=NO2)cc1`, for which the inhibition was 3.8% in [5] and 30.4% in series [9]. Moreover, the pIC50 in [10] is reported as above 5.
`COc1cccc(C[C@@H]2CC(c3ccc(Cl)cc3)=NO2)c1`: the figures for the inhibition in series [5] and in [9] were 20.6% and 96.7%, respectively. Moreover, the concentration for half-maximal inhibition (IC50) in series [10] is 17 nM.
